According to ChEMBL document CHEMBL2331144, “Synthesis and anticancer activity of analogues of phenstatin, with a phenothiazine A-ring, as a new class of microtubule-targeting agents” (Bioorg Med Chem Lett, 2013):

Columns and labels:
CCRF-CEM = experiment: Growth inhibition of human CCRF-CEM cells after 48 hrs by sulforhodamine B assay; format: functional
[1] = Growth inhibition of human NCI-ADR-RES cells after 48 hrs by sulforhodamine B assay; format: functional
[2] = Growth inhibition of human EKVX cells after 48 hrs by sulforhodamine B assay; format: functional
K562 = experiment: Growth inhibition of human K562 cells after 48 hrs by sulforhodamine B assay; format: functional; details: K562, 48 h
OVCAR-4 = experiment: Growth inhibition of human OVCAR4 cells after 48 hrs by sulforhodamine B assay; format: functional; details: OVCAR-4, 48 h
PC-3 = experiment: Growth inhibition of human PC3 cells after 48 hrs by sulforhodamine B assay; format: functional; details: PC-3, 48 h
TK-10 = experiment: Growth inhibition of human TK10 cells after 48 hrs by sulforhodamine B assay; format: functional; details: TK-10, 48 h
MDA-MB-231 = experiment: Growth inhibition of human MDA-MB-231 cells after 48 hrs by sulforhodamine B assay; format: functional; details: MDA-MB-231, 48 h
M14 = experiment: Growth inhibition of human M14 cells after 48 hrs by sulforhodamine B assay; format: functional; details: M14, 48 h
Malme-3M = experiment: Growth inhibition of human MALME-3M cells after 48 hrs by sulforhodamine B assay; format: functional
COLO 205 = experiment: Growth inhibition of human COLO205 cells after 48 hrs by sulforhodamine B assay; format: functional; details: COLO 205, 48 h
BT-549 = experiment: Growth inhibition of human BT549 cells after 48 hrs by sulforhodamine B assay; format: functional; details: BT-549, 48 h
SK-OV-3 = experiment: Growth inhibition of human SKOV3 cells after 48 hrs by sulforhodamine B assay; format: functional; details: SK-OV-3, 48 h
UACC-257 = experiment: Growth inhibition of human UACC257 cells after 48 hrs by sulforhodamine B assay; format: functional; details: UACC-257, 48 h
SN12C = experiment: Growth inhibition of human SN12C cells after 48 hrs by sulforhodamine B assay; format: functional
SF-539 = experiment: Growth inhibition of human SF539 cells after 48 hrs by sulforhodamine B assay; format: functional; details: SF-539, 48 h
Ovis aries = organism: Ovis aries; experiment: Inhibition of sheep brain tubulin polymerization at 100 uM using DAPI by fluorimetry
SK-MEL-28 = experiment: Growth inhibition of human SK-MEL-28 cells after 48 hrs by sulforhodamine B assay; format: functional; details: SK-MEL-28, 48 h
CAKI-1 = experiment: Growth inhibition of human CAKI-1 cells after 48 hrs by sulforhodamine B assay; format: functional; details: CAKI-1, 48 h
IGROV-1 = experiment: Growth inhibition of human IGROV1 cells after 48 hrs by sulforhodamine B assay; format: functional; details: IGROV-1, 48 h
OVCAR-3 = experiment: Growth inhibition of human OVCAR3 cells after 48 hrs by sulforhodamine B assay; format: functional; details: OVCAR-3, 48 h
NCI-H460 = experiment: Growth inhibition of human NCI-H460 cells after 48 hrs by sulforhodamine B assay; format: functional; details: NCI-H460, 48 h
[3] = Growth inhibition of human HCC2998 cells after 48 hrs by sulforhodamine B assay; format: functional; details: HCC 2998, 48 h
MCF7 = experiment: Growth inhibition of human MCF7 cells after 48 hrs by sulforhodamine B assay; format: functional; details: MCF7, 48 h
SF-295 = experiment: Growth inhibition of human SF295 cells after 48 hrs by sulforhodamine B assay; format: functional; details: SF-295, 48 h
SNB-75 = experiment: Growth inhibition of human SNB75 cells after 48 hrs by sulforhodamine B assay; format: functional; details: SNB-75, 48 h
OVCAR-8 = experiment: Growth inhibition of human OVCAR8 cells after 48 hrs by sulforhodamine B assay; format: functional; details: OVCAR-8, 48 h
MOLT-4 = experiment: Growth inhibition of human MOLT4 cells after 48 hrs by sulforhodamine B assay; format: functional; details: MOLT-4, 48 h
HOP-62 = experiment: Growth inhibition of human HOP62 cells after 48 hrs by sulforhodamine B assay; format: functional; details: HOP-62, 48 h
SK-MEL-5 = experiment: Growth inhibition of human SK-MEL-5 cells after 48 hrs by sulforhodamine B assay; format: functional; details: SK-MEL-5, 48 h
[4] = Growth inhibition of human Hs 578T cells after 48 hrs by sulforhodamine B assay; format: functional
SF-268 = experiment: Growth inhibition of human SF268 cells after 48 hrs by sulforhodamine B assay; format: functional; details: SF-268, 48 h
DU-145 = experiment: Growth inhibition of human DU145 cells after 48 hrs by sulforhodamine B assay; format: functional; details: DU-145, 48 h
786-0 = experiment: Growth inhibition of human 786-0 cells after 48 hrs by sulforhodamine B assay; format: functional; details: 786-0, 48 h
SW-620 = experiment: Growth inhibition of human SW620 cells after 48 hrs by sulforhodamine B assay; format: functional; details: SW-620, 48 h
SR = experiment: Growth inhibition of human SR cells after 48 hrs by sulforhodamine B assay; format: functional
HCT-15 = experiment: Growth inhibition of human HCT15 cells after 48 hrs by sulforhodamine B assay; format: functional; details: HCT-15, 48 h
UO-31 = experiment: Growth inhibition of human UO31 cells after 48 hrs by sulforhodamine B assay; format: functional; details: UO-31, 48 h
RPMI-8226 = experiment: Growth inhibition of human RPMI8226 cells after 48 hrs by sulforhodamine B assay; format: functional; details: RPMI-8226, 48 h
A498 = experiment: Growth inhibition of human A498 cells after 48 hrs by sulforhodamine B assay; format: functional; details: A498, 48 h
HCT-116 = experiment: Growth inhibition of human HCT116 cells after 48 hrs by sulforhodamine B assay; format: functional; details: HCT-116, 48 h
ACHN = experiment: Growth inhibition of human ACHN cells after 48 hrs by sulforhodamine B assay; format: functional
A549 = experiment: Growth inhibition of human A549/ATCC cells after 48 hrs by sulforhodamine B assay; format: functional; details: A549, 48 h
NCI-H522 = experiment: Growth inhibition of human NCI-H522 cells after 48 hrs by sulforhodamine B assay; format: functional; details: NCI-H522, 48 h
T47D = experiment: Growth inhibition of human T47D cells after 48 hrs by sulforhodamine B assay; format: functional
LOX IMVI = experiment: Growth inhibition of human LOXIMVI cells after 48 hrs by sulforhodamine B assay; format: functional
NCI-H23 = experiment: Growth inhibition of human NCI-H23 cells after 48 hrs by sulforhodamine B assay; format: functional; details: NCI-H23, 48 h
KM12 = experiment: Growth inhibition of human KM12 cells after 48 hrs by sulforhodamine B assay; format: functional; details: KM12, 48 h
HT-29 = experiment: Growth inhibition of human HT-29 cells after 48 hrs by sulforhodamine B assay; format: functional; details: HT-29, 48 h
RXF 393 = experiment: Growth inhibition of human RXF393 cells after 48 hrs by sulforhodamine B assay; format: functional; details: RXF 393, 48 h
HL-60(TB) = experiment: Growth inhibition of human HL-60(TB) cells after 48 hrs by sulforhodamine B assay; format: functional; details: HL-60, 48 h
MDA-MB-435 = experiment: Growth inhibition of human MDA-MB-435 cells after 48 hrs by sulforhodamine B assay; format: functional; details: MDA-MB-435, 48 h
UACC-62 = experiment: Growth inhibition of human UACC62 cells after 48 hrs by sulforhodamine B assay; format: functional; details: UACC-62, 48 h
OVCAR-5 = experiment: Growth inhibition of human OVCAR5 cells after 48 hrs by sulforhodamine B assay; format: functional; details: OVCAR-5, 48 h
HOP-92 = experiment: Growth inhibition of human HOP92 cells after 48 hrs by sulforhodamine B assay; format: functional; details: HOP-92, 48 h

## CCOC(=O)c1cc(C(=O)N2c3ccccc3Sc3ccccc32)n2c(C)cccc12
CCRF-CEM
  GI50: 2.39 µM
[1]
  GI50: 2.17 µM
[2]
  GI50: 5.84 µM
K562
  GI50: 3.78 µM
OVCAR-4
  GI50: 7.93 µM
PC-3
  GI50: 2.2 µM
TK-10
  GI50: 6.73 µM
MDA-MB-231
  GI50: 6.04 µM
M14
  GI50: 2.6 µM
Malme-3M
  GI50: 6.13 µM
COLO 205
  GI50: 3.13 µM
BT-549
  GI50: 2.93 µM
SK-OV-3
  GI50: 4.04 µM
UACC-257
  GI50: 3.24 µM
SN12C
  GI50: 5.53 µM
SF-539
  GI50: 4.13 µM
Ovis aries
  inhibition: 31%
SK-MEL-28
  GI50: 3.5 µM
CAKI-1
  GI50: 6.23 µM
IGROV-1
  GI50: 5.78 µM
OVCAR-3
  GI50: 4.24 µM
NCI-H460
  GI50: 3.75 µM
[3]
  GI50: 6.71 µM
MCF7
  GI50: 3.03 µM
SF-295
  GI50: 4.89 µM
SNB-75
  GI50: 1.88 µM
OVCAR-8
  GI50: 3.76 µM
MOLT-4
  GI50: 3.72 µM
HOP-62
  GI50: 6.14 µM
SK-MEL-5
  GI50: 2.55 µM
[4]
  GI50: 1.5 µM
SF-268
  GI50: 7.11 µM
DU-145
  GI50: 8.22 µM
786-0
  GI50: 4.17 µM
SW-620
  GI50: 3.14 µM
SR
  GI50: 2.42 µM
HCT-15
  GI50: 4.52 µM
UO-31
  GI50: 3.85 µM
RPMI-8226
  GI50: 2.16 µM
A498
  GI50: 1.91 µM
HCT-116
  GI50: 2.89 µM
ACHN
  GI50: 4.85 µM
A549
  GI50: 3.81 µM
NCI-H522
  GI50: 1.82 µM
T47D
  GI50: 4.16 µM
LOX IMVI
  GI50: 4.57 µM
NCI-H23
  GI50: 3.55 µM
KM12
  GI50: 2.94 µM
HT-29
  GI50: 2.95 µM
RXF 393
  GI50: 2.77 µM
HL-60(TB)
  GI50: 3.08 µM
MDA-MB-435
  GI50: 0.672 µM
UACC-62
  GI50: 2.55 µM
OVCAR-5
  GI50: 65.8 µM
HOP-92
  GI50: 2.69 µM
